# Test results reported in patent US11053475B2, “Methods of expanding hematopoietic stem cells, compositions, and methods of use thereof” (WISCONSIN ALUMNI RESEARCH FOUNDATION, priority 2015, dated 2021).
# Tests used:
# [1] = test system: Lin- hematopoietic precursors from E14.5 fetal livers; assay: Erythroid maturation (CD71/Ter119, R1-R5) of E14.5 fetal liver hematopoietic precursors, flow cytometry; type: cell-based, mouse; conditions: Lin- HSPCs from fetal liver, DMSO as control, 3 days
# Method: Primary erythroid precursor cell isolation. Primary erythroid precursors were isolated from E14.5 fetal livers using the EasySep™ negative selection Mouse Hematopoietic Progenitor Cell Enrichment Kit (StemCell Technologies). Briefly, fetal livers were dissociated by pipetting and resuspended at 5×10^7 cell/ml in PBS containing 2% FBS, 2.5 mM EDTA, and 10 mM glucose. EasySep™ Mouse Hematopoietic Progenitor Cell Enrichment Cocktail was added at 50 μg/ml supplemented with 2.5 μg/ml biotin-conjugated CD71 antibody (eBioscience). After 15 min incubation on ice, the cells were washed by centrifugation for […] at 1200 rpm at 4° C. and resuspended at 5×10^7 cell/ml in PBS containing 2% FBS, 2.5 mM EDTA, and 10 mM glucose, and EasySep™ Biotin Selection Cocktail was added at 100 μg/ml. After 15 min incubation at 4° C., EasySep™ Mouse Progenitor Magnetic Microparticles were added at 50 μg/ml. […]
# Flow cytometry. […] APC-conjugated antibody CD31 (MEC13.3, Biolegend), PE-conjugated antibody c-Kit (2B8, eBioscience), PerCP-Cy5.5-conjugated antibody Scal (D7, eBioscience), APC-conjugated antibody Ter119 (TER119, eBioscience) and PE-conjugated CD71 (R17217, eBioscience) were used for flow cytometry and Fluorescence Activated Cell Sorting (FACS). Samples were analyzed on a FACSAria™ II cell sorter (BD Biosciences). […]
# Gata2 expression = assay: RT-PCR and Western blot of Gata2/GATA-2 and GATA-2 target genes in fetal liver cells and FACS-sorted R2 cells; type: cell-based, mouse; conditions: total fetal liver cells, compound treatment, 72 h
# Method: Cell culture. G1E-ER-GATA-1 cells were cultured with or without 1 μM estradiol as previously described. Fetal liver erythroid precursor cells were cultured and maintained at a density of 2.5×10^5−1×10^6 cells/ml in StemPro®-34 (Gibco) supplemented with 10% nutrient supplement (Gibco), 2 mM L-glutamine (Cellgro), 1% Penicillin/streptomycin (Cellgro), 100 μM monothioglycerol (Sigma-Aldrich), 1 μM dexamethasone (Sigma-Aldrich), 0.5 U/ml of erythropoietin, and 1% conditioned medium from a kit ligand-producing CHO cell line for expansion. Cells were cultured in a humidified incubator at 37° C. (5% carbon dioxide).
# Quantitative real-time RT-PCR. […] Real-time PCR was performed with SYBR green master mix (Applied Biosystems) and Product accumulation was monitored by SYBR green fluorescence using either a StepOnePlus™ or Viia™7 instrument (Applied Biosystems). Relative expression was determined from a standard curve of serial dilutions of cDNA samples, and values were normalized to 18S RNA expression. […]
# Flow cytometry. […] APC-conjugated antibody CD31 (MEC13.3, Biolegend), PE-conjugated antibody c-Kit (2B8, eBioscience), PerCP-Cy5.5-conjugated antibody Scal (D7, eBioscience), APC-conjugated antibody Ter119 (TER119, eBioscience) and PE-conjugated CD71 (R17217, eBioscience) were used for flow cytometry and Fluorescence Activated Cell Sorting (FACS). […]
Compound,"activity on erythropoiesis (flow analysis, R1-R5), compared with psychosine [1]",Gata2 mRNA level vs DMSO-treated control (Gata2 expression),Gata2 primary transcript level vs DMSO-treated control (Gata2 expression)
CCCCCCCCCCCCC/C=C/[C@@H](O)C(N)CO[C@H]1O[C@H](CO)[C@@H](O[C@@H]2O[C@H](CO)[C@H](O)[C@H](O)[C@H]2O)[C@H](O)[C@@H]1O (stereo partly drawn) [lactosylsphingosine],not,–,–
"CCCCCCCCCCCCC/C=C/C(O)C(N)CO[C@@H]1O[C@H](CO)[C@H](O)[C@H](O)[C@H]1O (stereo partly drawn) [psychosine, galactosylsphingosine]",–,2-3 fold,2-3 fold
